Measurements: BindingDB's records for doi:10.1021/jm00145a017 (1985)

Experiment: Intrinsic affinity towards serotonin receptor from rat frontal cortex by displacement of [3H]spiperone.

Compound	Ki
Clc1cncc(N2CCNCC2)n1 [L-630,571]	6000 nM
FC(F)(F)c1cccc(N2CCNCC2)c1 [TFMPP]	298 nM
FC(F)(F)c1ccc2c(c1)N1CCNCC1CC2 (stereo not drawn) [9-Trifluoromethyl-2,3,4,4a,5,6-hexahydro-1H-pyrazino[1,2-a]quinoline]	136 nM
